For one series, the system named is PDCD1. Nature of the series: NGS editing of PDCD1 by dgRNA in HEK cells stably expressing Cas9.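 Note: dgRNA lipofected into Cas9-expressing HEK cells, lysed after 24 h, target amplicon sequenced, editing = reads carrying insertions or deletions as percent of all reads including wild type.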 The series is classed as cell-based, human. The following applies: at least 3 experiments.
The subject of a further series is CIITA. Nature of the series: NGS editing and frameshift edit of CIITA by dgRNA in HEK293 cells expressing Cas9. The format is cell-based, human. The following applies: HEK293 cells stably expressing Cas9, dgRNA to CIITA; for Avg. % Edit: N = 3; for Avg. % FS: frameshift edit.

Description for CIITA: Editing of CIITA with dgRNAs targeted to the CIITA gene were assayed in HEK293 cells engineered to express Cas9, as described above in Example 1.
Excerpt for PDCD1: Transfection of Cas9GFP-expressing HEK293 cells (HEK-293_Cas9GFP) was used for primary screening of target specific crRNAs. […] Selected crRNAs were chemically synthesized and delivered in a 96 well format. HEK-293-Cas9GFP cells were transfected with target crRNAs comprising a flagpole region of SEQ ID NO: 6607 in a 1:1 ratio with stock trRNA of SEQ ID NO: 6660. The transfection was mediated using lipofection technology according to manufacturer's protocol (DharmaFECT Duo, GE LifeSciences; or RNAiMax, LifeTechnologies). Transfected cells were lysed 24 h following lipofection and editing (e.g., cleavage) was detected within lysates with the T7E1 assay and/or next generation sequencing (NGS; below).
PCR primers were first designed around the target site, and the genomic area of interest PCR amplified. Additional PCR was performed according to manufacturer's protocols (Illumina) to add the necessary chemistry for sequencing. The amplicons were then sequenced on an Illumina MiSeq instrument. The reads were then aligned to the human reference genome (e.g., hg38) after eliminating those having low quality scores. From the resulting files containing the reads mapped to the reference genome (BAM files), reads which overlap the target region of interest were selected and the number of wild type reads versus the number of reads which contain an insertion or deletion was calculated. The editing percentage was then defined as the total number of reads with insertions or deletions over the total number of reads, including wild type. To determine the pattern of insertions and/or deletions that resulted from the edit, the aligned reads with indels were selected and the number of a reads with a given indel were summed.
Editing of CRISPR systems containing dgRNA molecules comprising targeting domains to sequences of PDCD1 were tested for editing in HEK (gRNA delivered to cells stably expressing Cas9) and CD3+ T cells (gRNA and Cas9 delivered as RNP) according to the methods described herein.
All mean editing % are as measured by NGS and are based on at least 3 experiments.

On to “CR000824: dgRNA targeting domain to PDCD1 (guide UCAGGCGGAGGUGAGCGGAA; targeting domain within dual guide RNA, chemistry not given here, further chemistry not given here; listed as Homo sapiens)”, for which the “HEK (NGS) % Editing Mean” value in the series with PDCD1 amounted to 54%. Regarding “CR000825: dgRNA targeting domain to PDCD1 (guide CUCAGGCGGAGGUGAGCGGA; targeting domain within dual guide RNA, chemistry not given here, further chemistry not given here; listed as Homo sapiens)”, in the series with PDCD1, the “HEK (NGS) % Editing Mean” value is listed as 46%. Still for that read-out and setting: under “CR000826: dgRNA targeting domain to PDCD1 (guide ACUGCUCAGGCGGAGGUGAG; targeting domain within dual guide RNA, chemistry not given here, further chemistry not given here; listed as Homo sapiens)” stands 70%. The same measure, in the same setting: in the case of “CR000827: dgRNA targeting domain to PDCD1 (guide GCUCACCUCCGCCUGAGCAG; targeting domain within dual guide RNA, chemistry not given here, further chemistry not given here; listed as Homo sapiens)” it was 39%.

For the substance “CR000828: dgRNA targeting domain to PDCD1 (guide CUUCUCCACUGCUCAGGCGG; targeting domain within dual guide RNA, chemistry not given here, further chemistry not given here; listed as Homo sapiens)”, the “HEK (NGS) % Editing Mean” value with PDCD1 is 69%.

For “CR000829: dgRNA targeting domain to PDCD1 (guide CAGUGGAGAAGGCGGCACUC; targeting domain within dual guide RNA, chemistry not given here, further chemistry not given here; listed as Homo sapiens)”, in the series with PDCD1, the “HEK (NGS) % Editing Mean” value was found to be 68%.

For “CR000830: dgRNA targeting domain to PDCD1 (guide UGGAGAAGGCGGCACUCUGG; targeting domain within dual guide RNA, chemistry not given here, further chemistry not given here; listed as Homo sapiens)”, the “HEK (NGS) % Editing Mean” value in the series with PDCD1 is 57%. Same read-out and setting: in the case of “CR000831: dgRNA targeting domain to PDCD1 (guide GGAGAAGGCGGCACUCUGGU; targeting domain within dual guide RNA, chemistry not given here, further chemistry not given here; listed as Homo sapiens)” it was 66%. Same read-out and setting: in the case of “CR000832: dgRNA targeting domain to PDCD1 (guide GAGAAGGCGGCACUCUGGUG; targeting domain within dual guide RNA, chemistry not given here, further chemistry not given here; listed as Homo sapiens)” it was 49%.

Consider “CR000833: dgRNA targeting domain to PDCD1 (guide AGGCGCCCUGGCCAGUCGUC; targeting domain within dual guide RNA, chemistry not given here, further chemistry not given here; listed as Homo sapiens)”, for which the “HEK (NGS) % Editing Mean” value in the series on PDCD1 is 34%. Same read-out and setting: under “CR000835: dgRNA targeting domain to PDCD1 (guide GCCCUGGCCAGUCGUCUGGG; targeting domain within dual guide RNA, chemistry not given here, further chemistry not given here; listed as Homo sapiens)” stands 69%; under “CR000836: dgRNA targeting domain to PDCD1 (guide CACCGCCCAGACGACUGGCC; targeting domain within dual guide RNA, chemistry not given here, further chemistry not given here; listed as Homo sapiens)”, 5%; under “CR000840: dgRNA targeting domain to PDCD1 (guide GGGCGGUGCUACAACUGGGC; targeting domain within dual guide RNA, chemistry not given here, further chemistry not given here; listed as Homo sapiens)”, 59%. In the case of “CR000841: dgRNA targeting domain to PDCD1 (guide CGGUGCUACAACUGGGCUGG; targeting domain within dual guide RNA, chemistry not given here, further chemistry not given here; listed as Homo sapiens)”, the “HEK (NGS) % Editing Mean” value with PDCD1 is reported as 19%.

For “CR000842: dgRNA targeting domain to PDCD1 (guide CACCUACCUAAGAACCAUCC; targeting domain within dual guide RNA, chemistry not given here, further chemistry not given here; listed as Homo sapiens)”, the “HEK (NGS) % Editing Mean” value in the series on PDCD1 amounted to 40%.

“CR000843: dgRNA targeting domain to PDCD1 (guide GAGAAGGUGGGGGGGUUCCA; targeting domain within dual guide RNA, chemistry not given here, further chemistry not given here; listed as Homo sapiens)”: the “HEK (NGS) % Editing Mean” value in the series with PDCD1 stood at 8%. On the same count and under the same terms, in the case of “CR000844: dgRNA targeting domain to PDCD1 (guide CGGUCACCACGAGCAGGGCU; targeting domain within dual guide RNA, chemistry not given here, further chemistry not given here; listed as Homo sapiens)” it was 25%. On the same count and under the same terms, under “CR000845: dgRNA targeting domain to PDCD1 (guide UCGGUCACCACGAGCAGGGC; targeting domain within dual guide RNA, chemistry not given here, further chemistry not given here; listed as Homo sapiens)” stands 21%. For “CR000846: dgRNA targeting domain to PDCD1 (guide GCCCUGCUCGUGGUGACCGA; targeting domain within dual guide RNA, chemistry not given here, further chemistry not given here; listed as Homo sapiens)”, in the series with PDCD1, the “HEK (NGS) % Editing Mean” value is given as 46%. Same read-out and setting: in the case of “CR000847: dgRNA targeting domain to PDCD1 (guide CCCUUCGGUCACCACGAGCA; targeting domain within dual guide RNA, chemistry not given here, further chemistry not given here; listed as Homo sapiens)” it was 77%; in that of “CR000848: dgRNA targeting domain to PDCD1 (guide CCCUGCUCGUGGUGACCGAA; targeting domain within dual guide RNA, chemistry not given here, further chemistry not given here; listed as Homo sapiens)”, 65%; in that of “CR000849: dgRNA targeting domain to PDCD1 (guide CCCCUUCGGUCACCACGAGC; targeting domain within dual guide RNA, chemistry not given here, further chemistry not given here; listed as Homo sapiens)”, 29%. On the same count and under the same terms, under “CR000850: gRNA targeting domain to PDCD1, CCUGCUCGUGGUGACCGAAG (SEQ ID NO: 5746) (targeting domain within guide RNA, chemistry not given here, further chemistry not given here; listed as Homo sapiens)” stands 55%; under “CR000851: dgRNA targeting domain to PDCD1 (guide GAAGGUGGCGUUGUCCCCUU; targeting domain within dual guide RNA, chemistry not given here, further chemistry not given here; listed as Homo sapiens)”, 4%.

For “CR003022 (guide AGACUGCCAGUCACCACAGU; targeting domain within dual guide RNA, chemistry not given here, further chemistry not given here; listed as Homo sapiens)”, in the series with CIITA, the “Avg. % Edit” value is given as 23.73% and the “Avg. % FS” value worked out at 17.96%. The matching figures for “CR003023 (guide GAGACUGCCAGUCACCACAG; targeting domain within dual guide RNA, chemistry not given here, further chemistry not given here; listed as Homo sapiens)”: 29.38% and 16.83%.

Consider “CR003024 (guide GGUGACUGGCAGUCUCCUAG; targeting domain within dual guide RNA, chemistry not given here, further chemistry not given here; listed as Homo sapiens)”, for which, in the series with CIITA, the “Avg. % Edit” value amounted to 20.40% and the “Avg. % FS” value was determined as 16.33%. With “CR003025 (guide GUGACUGGCAGUCUCCUAGU; targeting domain within dual guide RNA, chemistry not given here, further chemistry not given here; listed as Homo sapiens)”, in the series on CIITA, the “Avg. % Edit” value was 24.52% and the “Avg. % FS” value came to 19.21%. The matching figures for “CR003026 (guide AGUCGCUCACUGGUCCCACU; targeting domain within dual guide RNA, chemistry not given here, further chemistry not given here; listed as Homo sapiens)”: 29.63% and 20.05%.

(Values after patent US12037583B2, “Compositions and methods for immunooncology” (Novartis AG, priority 2015, dated 2024).)
